Tested on: organotypic cortical co-cultures
Experiment: Correlated activity (regeneration of functional connections) in organotypic cortical co-cultures on micro-electrode arrays
Assay type: cell-based, Wistar rats
Conditions: 50 nM in culture medium from 0 DIV, re-administered with each medium change up to 14 DIV; after 14 days in vitro; n=18; untreated control ca. 60% (n=28)
Procedure: Organotypic cortical co-cultures (350-425 μm thick from the neocortex) were prepared from three-day-old to seven-day-old Wistar rats of both sexes and were maintained in vitro using the roller tube technique; on this point see Gähwiler, Organotypic Monolayer Cultures of Nervous Tissue, J. NEUROSCIENCE METHODS, 1981, volume 4, pages 329-342. The co-cultures were allowed to grow for up to 35 days either on glass cover plates or on micro-electrode arrays in medium which contained 50% Eagle's basic medium, 25% Hanks-buffered saline solution, 25% horse serum, 33 mM D-glucose and 1 mM L-glutamine. The medium was replaced twice a week, and the co-culture explants were positioned relative to one another with varied orientations and varied distances (0 to 500 μm).
The explants cultured on micro-electrode arrays were recorded at different times for spontaneous electrical activity, at the earliest after 4 DIV (days in vitro) and at the latest 35 DIV in normal culture medium at a temperature of 35° C. Using a multi-channel recording system, the 60 micro-electrodes could be recorded simultaneously, as a result of which it was possible to test correlated activity in the co-cultures. […] The electrodes had impedances of 100 to 300 kΩ (at 1 kHz), a spacing of 500 μm and a diameter of 10 μ. The activity was recorded at 10 to 25 kHz per channel, stored, and analyzed offline in respect of latency. […]

Structure (SMILES): C=CC[C@@H]1/C=C(\C)C[C@H](C)C[C@H](OC)[C@H]2O[C@@](O)(C(=O)C(=O)N3CCCC[C@H]3C(=O)O[C@H](/C(C)=C/[C@@H]3CC[C@@H](O)[C@H](OC)C3)[C@H](C)[C@@H](O)CC1=O)[C@H](C)C[C@@H]2OC [FK506]
- correlated activity (share of explants showing correlation): ~90%

Reference: patent publication US20030068613A1, “Method for studying regeneration in biological material” (priority 2000, published 2003)
